The assay deals with T1, human CGT (Homo sapiens, UniProt Q16880).
T1 sequence (Q16880 21-541): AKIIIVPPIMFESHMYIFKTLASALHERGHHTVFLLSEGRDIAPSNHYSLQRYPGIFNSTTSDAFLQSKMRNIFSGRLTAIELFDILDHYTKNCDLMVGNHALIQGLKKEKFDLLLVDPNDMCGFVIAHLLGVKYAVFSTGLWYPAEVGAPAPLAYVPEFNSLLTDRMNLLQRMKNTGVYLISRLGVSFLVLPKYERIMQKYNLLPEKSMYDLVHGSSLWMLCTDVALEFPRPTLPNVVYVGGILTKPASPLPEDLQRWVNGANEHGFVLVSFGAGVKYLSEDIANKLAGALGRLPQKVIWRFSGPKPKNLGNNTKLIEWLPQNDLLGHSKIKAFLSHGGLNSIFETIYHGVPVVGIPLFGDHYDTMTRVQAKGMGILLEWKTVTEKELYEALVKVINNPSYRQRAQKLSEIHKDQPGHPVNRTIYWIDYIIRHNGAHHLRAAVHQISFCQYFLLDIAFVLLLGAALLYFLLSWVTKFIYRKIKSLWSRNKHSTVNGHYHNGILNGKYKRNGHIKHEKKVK
The experiment in a line: CGT Enzyme Assay (Biological Example 2, RapidFire/MS/MS method with 0.01% Tween 80 added). The following applies: enzymatic assay, CHO/CGT lysate. It counts as biochemical. The procedure: Full-length human CGT cDNA was cloned into the BamH1/Xho1 site of pcDNA3.1 (+) mammalian expression vector (V90-20, Invitrogen, Carlsbad, Calif.) and the plasmid was transfected into Chinese hamster ovary (CHO) cells. Lysate was prepared using M-PER (Mammalian Protein Extraction Reagent, ThermoFisher Scientific, Grand Island, N.Y.) in the presence of a protease inhibitor cocktail (P8340, Sigma, Saint Louis, Mo.). Each 100 mm dish (100% confluent, approximately 1×10^7 cells) was lysed with 250 μL of M-PER containing protease inhibitors. Protein concentration was determined using a Pierce BCA protein assay kit (ThermoFisher Scientific). […] The final concentration of DMSO was 0.5% in both compound-treated and mock-treated samples. Each individual reaction was diluted with 80 μL of methanol:acetronitrile (1:3) containing 5 μM N-docdecanoyl-NBD-galactosylceramide (internal standard) to stop the reaction. 200 μL H2O:acetonitile (1:1) was added to precipitate the protein. After sufficient mixing, the plates were centrifuged at 2469 g for 38 minutes, 200 μl of supernatant was transferred to a LC-MS 96-deep well plate and a second spin was performed at 2469 g for 10 minutes. The final supernatant was injected in triplicate for RapidFire/MS/MS analysis.
The quantitative analysis of C6-NBD-dihydro-ceramide and C6-NBD-dihydro-galactosylceramide was performed on a Rapid Fire 360 high-throughput mass spectrometry system (Agilent Technologies, Palo Alto, Calif.) coupled with a API4000^+ triple quadrupole mass spectrometer (Applied Biosystems, Concord, Ontario, Canada). RapidFire software packages, including RapidFire Control panel, RapidFire UI and RapidFire Integrator (Agilent Technologies), were used to control the RapidFire instrument and to process data. Analyst 1.6.2 software packages (Applied Biosystems) were used to control the MS system and acquire MS data. 10 μL of sample was loaded on a micro-scale C4 solid-phase extraction (SPE) cartridge (Agilent Technologies) and salts were removed using water supplemented with 0.1% formic acid at the flow rate of 1.5 mL/min for 3 sec. C6-NBD-dihydro-ceramide and C6-NBD-dihydro-galactosylceramide were co-eluted into the mass spectrometer using acetonitrile containing 0.1% formic acid at the flow rate of 1.0 mL/min for 3 sec. The total cycle time of one injection was 8 secs. The MS/MS detection was performed in ESI negative mode.
The C6-NBD-dihydro-galactosylceramide reading was normalized first by dividing the peak area of C6-NBD-dihydro-galactosylceramide by the peak area of the internal standard, N-docdecanoyl-NBD-galactosylceramide.

Molecule `CC1(C)[C@H](c2cccc(OC(F)(F)F)c2)N(c2ccc(C(F)(F)F)cc2)C(=O)N1c1ccc(C(F)(F)F)cc1` [Example 20-2, (S)-4,4-dimethyl-5-(3-(trifluoromethoxy)phenyl)-1,3-bis(4-(trifluoromethyl)phenyl)imidazolidin-2-one] showed a half-inhibitory concentration (IC50) of 10 to 30 µM.

`Cc1ccc(N2C(=O)N(c3ccc(C)cc3)C(C)(C)[C@H]2c2cccc(OC(F)(F)F)c2)cc1` [Example 21-1, (R)-4,4-dimethyl-1,3-di-p-tolyl-5-(3-(trifluoromethoxy)phenyl)imidazolidin-2-one] showed a 50% inhibitory concentration (IC50) of 1 to 10 µM.

As for `Cc1ccc(N2C(=O)N(c3ccc(C)cc3)C(C)(C)[C@@H]2c2cccc(OC(F)(F)F)c2)cc1` [Example 21-2, (S)-4,4-dimethyl-1,3-di-p-tolyl-5-(3-(trifluoromethoxy)phenyl)imidazolidin-2-one], the IC50 was below 1 µM.

Turning to `CCC[C@]1(C)[C@@H](c2cccc(OC(F)(F)F)c2)N(c2ccc(Cl)cc2)C(=O)N1c1ccc(Cl)cc1` [Example 22-2, (4R,5R)-1,3-bis(4-chlorophenyl)-4-methyl-4-propyl-5-(3-(trifluoromethoxy)phenyl)imidazolidin-2-one], the concentration for half-maximal inhibition (IC50) is below 1 µM.

`CCC[C@]1(C)[C@H](c2cccc(OC(F)(F)F)c2)N(c2ccc(Cl)cc2)C(=O)N1c1ccc(Cl)cc1` [Example 22-3, (4R,5S)-1,3-bis(4-chlorophenyl)-4-methyl-4-propyl-5-(3-(trifluoromethoxy)phenyl)imidazolidin-2-one] came in with a half-inhibitory concentration (IC50) below 1 µM.

`CCC[C@@]1(C)[C@H](c2cccc(OC(F)(F)F)c2)N(c2ccc(Cl)cc2)C(=O)N1c1ccc(Cl)cc1` [Example 22-5, (4S,5S)-1,3-bis(4-chlorophenyl)-4-methyl-4-propyl-5-(3-(trifluoromethoxy)phenyl)imidazolidin-2-one]: the half-maximal inhibitory concentration (IC50) is 10 to 30 µM.

Molecule `O=C1N(c2ccc(Cl)cc2)[C@H]2CCC[C@@]2(c2cccc(OC(F)F)c2)N1c1ccc(Cl)cc1` [Example 23-1, (3aS,6aS)-1,3-bis(4-chlorophenyl)-3a-(3-(difluoromethoxy)phenyl)hexahydrocyclopenta[d]imidazol-2(1H)-one] registered an IC50 of 10 to 30 µM.

`O=C1N(c2ccc(Cl)cc2)[C@@H]2CCC[C@]2(c2cccc(OC(F)F)c2)N1c1ccc(Cl)cc1` [Example 23-2, (3aR,6aR)-1,3-bis(4-chlorophenyl)-3a-(3-(difluoromethoxy)phenyl)hexahydrocyclopenta[d]imidazol-2(1H)-one] yielded an IC50 of 10 to 30 µM.

On to `CC1(C)[C@@H](c2cccc(C#N)c2)N(c2ccc(C(F)(F)F)cc2)C(=O)N1c1ccc(C(F)(F)F)cc1` [Example 24-1, (R)-3-(5,5-dimethyl-2-oxo-1,3-bis(4-(trifluoromethyl)phenyl)imidazolidin-4-yl)benzonitrile], for which the IC50 is below 1 µM.

On to `CC1(C)[C@H](c2cccc(C#N)c2)N(c2ccc(C(F)(F)F)cc2)C(=O)N1c1ccc(C(F)(F)F)cc1` [Example 24-2, (S)-3-(5,5-dimethyl-2-oxo-1,3-bis(4-(trifluoromethyl)phenyl)imidazolidin-4-yl)benzonitrile], for which the IC50 lay in the range of 10 to 30 µM.

In turn, `C[C@@]1(C(F)(F)F)[C@H](c2cccc(OC(F)(F)F)c2)N(c2ccc(Cl)cc2)C(=O)N1c1ccc(Cl)cc1` [Example 25-1] had an IC50 below 1 µM.

In turn, `C[C@]1(C(F)(F)F)[C@@H](c2cccc(OC(F)(F)F)c2)N(c2ccc(Cl)cc2)C(=O)N1c1ccc(Cl)cc1` [Example 25-2] had a concentration for half-maximal inhibition (IC50) of 1 to 10 µM.

Molecule `CC1(C)[C@@H](c2cccc(OC(F)(F)F)c2)N(c2ccccc2)C(=O)N1c1ccccc1` [Example 26-1, (R)-4,4-dimethyl-1,3-diphenyl-5-(3-(trifluoromethoxy)phenyl)imidazolidin-2-one] showed an IC50 of 10 to 30 µM.

In turn, `CC1(C)[C@H](c2cccc(OC(F)(F)F)c2)N(c2ccccc2)C(=O)N1c1ccccc1` [Example 26-2, (S)-4,4-dimethyl-1,3-diphenyl-5-(3-(trifluoromethoxy)phenyl)imidazolidin-2-one] showed an IC50 of 1 to 10 µM.

For `C[C@@]1(C(F)(F)F)[C@H](c2cccc(C#N)c2)N(c2ccc(Cl)cc2)C(=O)N1c1ccc(Cl)cc1` [Example 27-1, 3-((4S,5S)-1,3-bis(4-chlorophenyl)-5-methyl-2-oxo-5-(trifluoromethyl)imidazolidin-4-yl)benzonitrile], the IC50 fell in the range of 10 to 30 µM.

The molecule `C[C@]1(C(F)(F)F)[C@@H](c2cccc(C#N)c2)N(c2ccc(Cl)cc2)C(=O)N1c1ccc(Cl)cc1` [Example 27-2, 3-((4R,5R)-1,3-bis(4-chlorophenyl)-5-methyl-2-oxo-5-(trifluoromethyl)imidazolidin-4-yl)benzonitrile] showed a half-maximal inhibitory concentration (IC50) below 1 µM.

For `CC1(C)[C@@H](c2cccc(OC(F)(F)F)c2)N(c2cccc(Cl)c2)C(=O)N1c1cccc(Cl)c1` [Example 28-1, (R)-1,3-bis(3-chlorophenyl)-4,4-dimethyl-5-(3-(trifluoromethoxy)phenyl)imidazolidin-2-one], the IC50 lay within 10 to 30 µM.

Consider `CC1(C)[C@H](c2cccc(OC(F)(F)F)c2)N(c2cccc(Cl)c2)C(=O)N1c1cccc(Cl)c1` [Example 28-2, (S)-1,3-bis(3-chlorophenyl)-4,4-dimethyl-5-(3-(trifluoromethoxy)phenyl)imidazolidin-2-one], for which the IC50 is below 1 µM.

Turning to `N#Cc1cccc([C@H]2N(c3ccc(Cl)cc3)C(=O)N(c3ccc(Cl)cc3)C23COC3)c1` [Example 30-1, (R)-3-(5,7-bis(4-chlorophenyl)-6-oxo-2-oxa-5,7-diazaspiro[3.4]octan-8-yl)benzonitrile], the IC50 lay within 10 to 30 µM.

Molecule `N#Cc1cccc([C@@H]2N(c3ccc(Cl)cc3)C(=O)N(c3ccc(Cl)cc3)C23COC3)c1` [Example 30-2, (S)-3-(5,7-bis(4-chlorophenyl)-6-oxo-2-oxa-5,7-diazaspiro[3.4]octan-8-yl)benzonitrile] yielded a half-maximal inhibitory concentration (IC50) below 1 µM.

As for `O=C1N(c2ccc(Cl)cc2)C2CCOC[C@]2(c2cccc(OC(F)(F)F)c2)N1c1ccc(Cl)cc1` (stereo partly drawn) [Example 31-1, (3aR)-1,3-bis(4-chlorophenyl)-3a-(3-(trifluoromethoxy)phenyl)hexahydropyrano[3,4-d]imidazol-2(3H)-one], the IC50 lay in the range of 10 to 30 µM.

Molecule `O=C1N(c2ccc(Cl)cc2)C2CCOC[C@@]2(c2cccc(OC(F)(F)F)c2)N1c1ccc(Cl)cc1` (stereo partly drawn) [Example 31-2, (3aS)-1,3-bis(4-chlorophenyl)-3a-(3-(trifluoromethoxy)phenyl)hexahydropyrano[3,4-d]imidazol-2(3H)-one] returned an IC50 below 1 µM.

Turning to `Cc1ccc(N2C(=O)N(c3ccc(C)cc3)C3(COC3)[C@H]2c2cccc(C#N)c2)cc1` [Example 32-1, (R)-3-(6-oxo-5,7-di-p-tolyl-2-oxa-5,7-diazaspiro[3.4]octan-8-yl)benzonitrile], the half-maximal inhibitory concentration (IC50) is 10 to 30 µM.

In turn, `Cc1ccc(N2C(=O)N(c3ccc(C)cc3)C3(COC3)[C@@H]2c2cccc(C#N)c2)cc1` [Example 32-2, (S)-3-(6-oxo-5,7-di-p-tolyl-2-oxa-5,7-diazaspiro[3.4]octan-8-yl)benzonitrile] came in with an IC50 below 1 µM.

`CCC[C@]1(C)[C@@H](c2cccc(C#N)c2)N(c2ccc(Cl)cc2)C(=O)N1c1ccc(Cl)cc1` [Example 33-1, 3-((4R,5R)-1,3-bis(4-chlorophenyl)-5-methyl-2-oxo-5-propylimidazolidin-4-yl)benzonitrile]: the IC50 was below 1 µM.
